Data on 6 compounds can be found in EP0565593B1, “REDUCING PESTICIDAL INTERACTIONS IN CROPS” (priority 1990, dated 1992).

This assay concerns Corn. Put plainly: Greenhouse test Procedure VI: biocide and antidote in furrow, herbicide PPI in cover layer (Examples 43-47, 59-61; Tables 42-46, 58-60). Format: in vivo. Conditions: for safener efficacy, comparison: COUNTER 15G + PURSUIT/co-herbicides, Example 61; for safening: COUNTER 15G/PURSUIT interaction, Example 47. The source says:
This procedure describes interaction among herbicide, biocide and antidote when the herbicide is incorporated in a soil cover layer and the biocide and the antidote are applied in a soil furrow containing crop seed before emergence of the crop. The soil and seeding depth were described in Procedure IV. A first container was designated as an untreated control, a second container was designated as a herbicide control, a third container was designated as a herbicide + biocide control and a fourth container as a herbicide + biocide + antidote test container. The biocide and antidote were formulated as granules. The biocide was applied to the soil furrows of the third and fourth containers at an application rate of 1.1 mg of active compound per cm of row. The antidote was applied to the soil furrow of the fourth container at an application rate of 0.37 mg of active compound per cm of row. A measured amount of the herbicide dispersed or dissolved in acetone was applied to a measured quantity of soil. The quantity of soil treated with the herbicide was thoroughly mixed to incorporate the herbicide. Samples of this soil were used to cover the seed beds of the second, third and fourth containers. For each test series, the seed bed of the first container was likewise covered by a soil layer not treated with herbicide and without biocide or antidote in the soil furrow.
The containers were then placed on a bench in a greenhouse. Watering was by subirrigation plus overhead irrigation after the plants emerged. All treatments were run in duplicate. Plant response was observed according to Procedure IV. Variations in this procedure will be noted in the examples.
In continuing tests to evaluate the variations of this invention, a series of tests were conducted to determine the efficacy of the above safeners in Examples 39-42 to alleviate corn injury induced by the interaction of various additional commercial sulfonylurea herbicides with COUNTER 15G insecticide. In this example, the tests were conducted according to Procedure VI above. In modifications of that procedure, herbicides were applied to soil samples as acetone/water suspensions, incorporated by shaking in a closed container, with subsamples used to cover furrow-treated 10.2 cm pots. Pots were subirrigated followed by overhead misting on days 6-10.
This example was designed to test the safening effect of those above safeners used in this test series to relieve corn injury by negative synergism induced by interaction of COUNTER 15G and three imidazolinone herbicides, i.e., imazaquin and imazapyr (used in the POE tests in Example 41) and AC 263222 (a.i. in CADRE® herbicide). As differing from the tests in Example 41, this test was a PPI test according to Procedure VI described above. Observation of test results (Table 43) were taken thirteen 913) days after in-furrow PPI preparation.
This example describes PPI tests to evaluate said test safeners in this series with analogs of the sulfonamide herbicides tested under POE herbicide application procedures described in Example 42. In these tests, conducted according to Procedure VI described above, Herbicide Nos. 20, 22 and 24 were applied PPI with the insecticide and antidote. Observations of tests results were made thirteen days after PPI initiation.
An additional three (3) sulfonamide herbicide analogs were tested simultaneously and under the same conditions described in Example 45.
Another test of this invention involved the safening effects of the safeners in this series against negative synergy inducted by the interaction of COUNTER 15G and a sulfonylurea herbicide (OUST®), Herbicide No. 13, and PURSUIT, an imidazolinone herbicide, No. 6. Test conditions were the same as those in Examples 43-46. Other procedures for applying herbicidal formulations are as described in Example 42. […]

The mark [1] stands for this setting: Antidote + Biocide No. 1 in furrow, Herbicide No. 6 0.14 Kg/Ha PPI.
Setting [2] is: Antidote + Biocide No. 1 in furrow, Herbicide No. 11 0.0044 Kg/Ha PPI.
Setting [3] is: Antidote + Biocide No. 1 in furrow, Herbicide No. 12 0.0044 Kg/Ha PPI.
The mark [4] stands for this setting: Antidote + Biocide No. 1 in furrow, Herbicide No. 13 0.0011 Kg/Ha PPI.
[5] abbreviates: Antidote + Biocide No. 1 in furrow, Herbicide No. 13 0.0022 Kg/Ha PPI.
Where [6] appears, read: Antidote + Biocide No. 1 in furrow, Herbicide No. 14 0.07 Kg/Ha PPI.
The mark [7] stands for this setting: Antidote + Biocide No. 1 in furrow, Herbicide No. 16 0.07 Kg/Ha PPI, 13 days.
The mark [8] stands for this setting: Antidote + Biocide No. 1 in furrow, Herbicide No. 17 0.14 Kg/Ha PPI, 13 days.
[9] abbreviates: Antidote + Biocide No. 1 in furrow, Herbicide No. 18 0.04 Kg/Ha PPI, 13 days.
Where [10] appears, read: Antidote + Biocide No. 1 in furrow, Herbicide No. 20 1.12 Kg/Ha PPI, 13 days.
[11] abbreviates: Antidote + Biocide No. 1 in furrow, Herbicide No. 22 0.28 Kg/Ha PPI, 13 days.
Where [12] appears, read: Antidote + Biocide No. 1 in furrow, Herbicide No. 24 0.14 Kg/Ha PPI, 13 days.
Setting [13] is: Antidote + Biocide No. 1 in furrow, Herbicide No. 25 0.14 Kg/Ha PPI, 13 days.
[14] abbreviates: Antidote + Biocide No. 1 in furrow, Herbicide No. 26 2.24 Kg/Ha PPI, 13 days.
Setting [15] is: Antidote + Biocide No. 1 in furrow, Herbicide No. 28 0.04 Kg/Ha PPI, 13 days.

With `CC1(C)OC(c2ccco2)CN1C(=O)C(Cl)Cl` (centres unmarked) [compound 1], the “% Inhibition Corn” value under setting [1] is given as 15%; the “% Inhibition Corn” value under setting [2] was 15%; the “% Inhibition Corn” value under setting [3] is given as 20%; the “% Inhibition Corn” value under setting [4] was 40%; the “% Inhibition Corn” value under setting [5] came to 70%; the “% Inhibition Corn” value under setting [6] is reported as 10%. The “% Inhibition Corn” value was determined as 45% under setting [7]; 45% under setting [8]; 10% under setting [9]; 25% under setting [10]; 5% under setting [11]; 25% under setting [12]. Besides, the “% Inhibition Corn” value reads like this: under setting [13], 15%; under setting [14], 20%; under setting [15], 20%.

For `N#CCOc1ccc(Cl)c2cccnc12` [compound 33], the “% Inhibition Corn” value under setting [1] stood at 20%; the “% Inhibition Corn” value under setting [2] was determined as 20%; the “% Inhibition Corn” value under setting [3] is on record as 20%; the “% Inhibition Corn” value under setting [4] was determined as 40%; the “% Inhibition Corn” value under setting [5] was found to be 90%; the “% Inhibition Corn” value under setting [6] is 10%. For the same compound, the “% Inhibition Corn” value by setting is: under setting [7], 35%; under setting [8], 20%; under setting [9], 5%; under setting [10], 50%; under setting [11], 5%; under setting [12], 40%. For the same compound, the “% Inhibition Corn” value is, setting by setting: under setting [13], 20%; under setting [14], 10%; under setting [15], 30%.

On to `COC(=O)COC(c1ccccc1)c1ccccc1` [Antidote No. 12, Acetic acid, (diphenylmethoxy)-, methyl ester], for which the “safener efficacy, comparison” value is listed as “more effective than flurazole or MON-4660” and the “safening” value is “good activity”. Besides, the “safener efficacy” value (COUNTER 15G + XRD-498/co-herbicide mixture, Example 60) is listed as “most effective safener”.

On to `COC(=O)COC(c1ccccc1)c1ccccc1` [compound 12], for which the “% Inhibition Corn” value reads like this: under setting [1], 10%; under setting [2], 10%; under setting [3], 10%; under setting [4], 35%; under setting [5], 55%; under setting [6], 0%. Besides, the “% Inhibition Corn” value under setting [7] turned out to be 40%; the “% Inhibition Corn” value under setting [8] was 10%; the “% Inhibition Corn” value under setting [9] turned out to be 5%; the “% Inhibition Corn” value under setting [10] came to 25%; the “% Inhibition Corn” value under setting [11] is reported as 0%; the “% Inhibition Corn” value under setting [12] turned out to be 30%. The “% Inhibition Corn” value under setting [13] is listed as 0%; the “% Inhibition Corn” value under setting [14] is given as 5%; the “% Inhibition Corn” value under setting [15] amounted to 10%; the “% Inhibition Corn” value (Herbicide No. 12 0.0044 Kg/Ha PPI + Biocide No. 1 in furrow, no antidote) amounted to 70%; the “% Inhibition Corn” value (Herbicide No. 12 0.0044 Kg/Ha PPI alone, average of two reps) amounted to 40%.

`CC1(C)OC(c2ccco2)CN1C(=O)C(Cl)Cl` (centres unmarked) [Antidote No. 1, Oxazolidine, 3-(dichloroacetyl)-2,2-dimethyl-5-(2-furanyl)-]: the “safener efficacy, comparison” value is “more effective than flurazole or MON-4660” and the “safening” value is listed as “good activity”.

Take `O=C(OCc1ccccc1)c1sc(Cl)nc1C(F)(F)F` [Antidote No. 7, 5-Thiazolecarboxylic acid, 2-chloro-4-(trifluoromethyl)-, (phenylmethyl) ester]: the “safening” value is “less effective than the other safeners”.
